We go through ten compounds from PubChem BioAssay AID1259411 (Chemical Carcinogenesis Research Information System (CCRIS), 2018).

In the data set the test system is rodent carcinogenicity bioassays, tumor incidence. Nature of the data set: CCRIS carcinogenicity studies. Put shortly: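 NCI-built, expert-reviewed records of carcinogenicity and related test outcomes (mutagenicity, tumor promotion/inhibition) compiled from published and report sources, historical span 1985-2011, not updated.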

Active and inactive are the calls of the source. No rule for the calls is given here.

On to `CC[C@H](C)[C@H]1O[C@]2(C=C[C@@H]1C)C[C@@H]1C[C@@H](C/C=C(\C)[C@@H](O[C@H]3C[C@H](OC)[C@@H](O[C@H]4C[C@H](OC)[C@@H](NC)[C@H](C)O4)[C@H](C)O3)[C@@H](C)/C=C/C=C3\CO[C@@H]4[C@H](O)C(C)=C[C@@H](C(=O)O1)[C@]34O)O2`, for which the carcinogen call runs as follows: (Species: Mouse, Strain/Sex: Strain not specified/Female (50/Group), Route: Oral, Dose: 0, 0.5, 2.5, 12.5 (lowered to 7.5 at wk 48) mg/kg/day in the diet for 79 wk, study duration 79 wk, Dose: 0, 0.5, 2.5, 12.5 (lowered to 7.5 at wk 48) mg/kg/day in the diet for 79 wk, study duration 79 wk) “inactive; negative”; (Species: Mouse, Strain/Sex: Strain not specified/Male (50/Group), Route: Oral, Dose: 0, 0.5, 2.5, 12.5 (lowered to 7.5 at wk 9 and to 5 at wk 31) mg/kg/day in the diet for 79 wk, study duration 79 wk, Dose: 0, 0.5, 2.5, 12.5 (lowered to 7.5 at wk 9 and to 5 at wk 31) mg/kg/day in the diet for 79 wk, study duration 79 wk) “inactive; negative”; (Species: Rat, Strain/Sex: Strain not specified/Female (65/Group), Route: Oral, Dose: 0, 0.25, 1, 5 (lowered to 2.5 at wk 10) mg/kg/day in the diet for 105 wk, study duration 105 wk, Dose: 0, 0.25, 1, 5 (lowered to 2.5 at wk 10) mg/kg/day in the diet for 105 wk, study duration 105 wk) “inactive; negative”; (Species: Rat, Strain/Sex: Strain not specified/Male (65/Group), Route: Oral, Dose: 0, 0.25, 1, 5 (lowered to 2.5 at wk 6) mg/kg/day in the diet for 105 wk, study duration 105 wk, Dose: 0, 0.25, 1, 5 (lowered to 2.5 at wk 6) mg/kg/day in the diet for 105 wk, study duration 105 wk) “inactive; negative”.
Regarding `CC[C@H]1NC(=O)[C@@H]2[C@H](Cl)[C@H](Cl)CN2C(=O)[C@@H](CO)NC(=O)C[C@H](c2ccccc2)NC(=O)[C@H](CO)NC1=O`, the carcinogen call (Species: MOUSE, Strain/Sex: DDNI/MALE, Route: ORAL, Dose: 0, 40, 60 UG IN DIET, 1/D FOR LIFE, Dose: 0, 40, 60 UG IN DIET, 1/D FOR LIFE, Tumor Site: Type of Lesion: HEMATOPOIETIC SYSTEM: RETICULOENDOTHELIOMA, LIVER: CARCINOMA, HEPATOCELLULAR ADENOMA) is “active; positive”.
Regarding `C1CCOC1`, the carcinogen call is “active; positive” (Species: MOUSE, Strain/Sex: B6C3F1/FEMALE, Route: INHALATION, Dose: 0, 200, 600, 1800 PPM 6HR/D 5 D/WK FOR 105 WK (STUDY DURATION: 105 WK), Dose: 0, 200, 600, 1800 PPM 6HR/D 5 D/WK FOR 105 WK (STUDY DURATION: 105 WK), Tumor Site: Type of Lesion: LIVER: ADENOMA OR CARCINOMA); “active; positive” (Species: MOUSE, Strain/Sex: B6C3F1/FEMALE, Route: INHALATION, Dose: 0, 200, 600, 1800 PPM 6 HR/D 5 D/WK FOR 105 WK (STUDY DURATION: 105 WK), Dose: 0, 200, 600, 1800 PPM 6 HR/D 5 D/WK FOR 105 WK (STUDY DURATION: 105 WK), Tumor Site: Type of Lesion: LIVER: HEPATOCELLULAR ADENOMA, HEPATOCELLULAR CARCINOMA); “inactive; negative” (Species: MOUSE, Strain/Sex: B6C3F1/MALE, Route: INHALATION, Dose: 0, 200, 600, 1800 PPM 6 HR/D 5 D/WK FOR 105 WK (STUDY DURATION: 105 WK), Dose: 0, 200, 600, 1800 PPM 6 HR/D 5 D/WK FOR 105 WK (STUDY DURATION: 105 WK)); “inactive; negative” (Species: RAT, Strain/Sex: F344/FEMALE, Route: INHALATION, Dose: 0, 200, 600, 1800 PPM 6 HR/D 5 D/WK FOR 105 WK (STUDY DURATION: 105 WK), Dose: 0, 200, 600, 1800 PPM 6 HR/D 5 D/WK FOR 105 WK (STUDY DURATION: 105 WK)); “active; positive” (Species: RAT, Strain/Sex: F344/MALE, Route: INHALATION, Dose: 0, 200, 600, 1800 PPM 6 HR/D 5 D/WK FOR 105 WK (STUDY DURATION: 105 WK), Dose: 0, 200, 600, 1800 PPM 6 HR/D 5 D/WK FOR 105 WK (STUDY DURATION: 105 WK), Tumor Site: Type of Lesion: KIDNEY: RENAL TUBULE ADENOMA OR CARCINOMA).
For `CCCOC(N)=O`, where the note is “Species: MOUSE, Route: INTRAPERITONEAL, Tumor Site: Type of Lesion: LUNG”, the carcinogen call was “active; positive”.
With `c1ccc2c(c1)c1c(c3cccnc32)O1`, the carcinogen call was “inactive; negative” (Species: MOUSE, Strain/Sex: CD-1/FEMALE, Route: INTRAPERITONEAL, Dose: 0, 5, 10 AND 20 µL OF A 0.05 MOLAR SOLUTION ON DAYS 1, 8 AND 15 OF LIFE RESPECTIVELY (TOTAL DOSE: 1.75 UMOL) (STUDY DURA, Dose: 0, 5, 10 AND 20 µL OF A 0.05 MOLAR SOLUTION ON DAYS 1, 8 AND 15 OF LIFE RESPECTIVELY (TOTAL DOSE: 1.75 UMOL) (STUDY DURA) and “inactive; negative” (Species: MOUSE, Strain/Sex: CD-1/MALE, Route: INTRAPERITONEAL, Dose: 0, 5, 10 AND 20 µL OF A 0.05 MOLAR SOLUTION ON DAYS 1, 8 AND 15 OF LIFE RESPECTIVELY (TOTAL DOSE: 1.75 UMOL) (STUDY DURA, Dose: 0, 5, 10 AND 20 µL OF A 0.05 MOLAR SOLUTION ON DAYS 1, 8 AND 15 OF LIFE RESPECTIVELY (TOTAL DOSE: 1.75 UMOL) (STUDY DURA).
Turning to `NNc1ccccc1`, under “Species: MOUSE, Route: ORAL, Tumor Site: Type of Lesion: BLOOD VESSELS, LUNG”, the carcinogen call was “active; positive”.
For `C[C@H]1O[C@@H]1Cl`, the carcinogen call was “active; positive” (Species: MOUSE, Strain/Sex: ICR/FEMALE, Route: DERMAL, Dose: 10 MG IN 0.1 ML ACETONE 3/WK FOR LIFE, Tumor Site: Type of Lesion: INTEGUMENTARY SYSTEM (SKIN): PAPILLOMA, SQUAMOUS CELL CARCINOMA) and “active; positive” (Species: MOUSE, Strain/Sex: ICR/FEMALE, Route: SUBCUTANEOUS, Dose: 1 MG IN 0.05 ML TRICAPRYLIN 1/WK FOR LIFE, Tumor Site: Type of Lesion: INJECTION SITE: FIBROSARCOMA, CARCINOMA).
For the compound `COc1cc2c(c3c1c(=O)c1ccccc1n3C)C=CC(C)(C)O2`, the carcinogen call runs as follows: (Species: RAT, Strain/Sex: SPRAGUE-DAWLEY/FEMALE, Route: INTRAPERITONEAL, Dose: 0, 3.75, 7.5, 15 MG/KG FOR 52 WK (STUDY DURATION: 80-82 WK), Dose: 0, 3.75, 7.5, 15 MG/KG FOR 52 WK (STUDY DURATION: 80-82 WK), Tumor Site: Type of Lesion: MAMMARY GLAND: FIBROADENOMA, PERITONEAL CAVITY: SARCOMA OR FIBROSARCOMA OR MESOTHELIOMA) “active; positive”; (Species: RAT, Strain/Sex: SPRAGUE-DAWLEY/MALE, Route: INTRAPERITONEAL, Dose: 0, 3.75, 7.5, 15 MG/KG FOR 51-52 WK (STUDY DURATION: 51-82 WK), Dose: 0, 3.75, 7.5, 15 MG/KG FOR 51-52 WK (STUDY DURATION: 51-82 WK), Tumor Site: Type of Lesion: MUSCULOSKELETAL SYSTEM: OSTEOSARCOMA, PERITONEAL CAVITY: SARCOMA OR FIBROSARCOMA OR MESOTHELIOMA) “active; positive”.
`CCN(CC)CCCC(C)Nc1c2ccc(Cl)cc2nc2ccc(OC)cc12` (stereo unspecified): the carcinogen call reads like this: (Species: Mouse, Strain/Sex: CD-1/Female (23/24)/(24/24)(23/24)(22/23), Route: Intraperitoneal, Dose: 0, 10, 50, 150 mg/kg on days 8 and 15 after birth (Study duration: 52 weeks) (Test material solvent: 1% w/v carboxymethy, Dose: 0, 10, 50, 150 mg/kg on days 8 and 15 after birth (Study duration: 52 weeks) (Test material solvent: 1% w/v carboxymethy) “inactive; negative”; (Species: Mouse, Strain/Sex: CD-1/Male (32/32)/(23/24)(23/24)(25/25), Route: Intraperitoneal, Dose: 0, 10, 50, 150 mg/kg on days 8 and 15 after birth (Study duration: 52 weeks) (Test material solvent: 1% w/v carboxymethy, Dose: 0, 10, 50, 150 mg/kg on days 8 and 15 after birth (Study duration: 52 weeks) (Test material solvent: 1% w/v carboxymethy) “inactive; negative”.
For the compound `CCCCN(N=O)C(CCC)OO` (stereo unspecified), the carcinogen call (Species: RAT, Strain/Sex: F344/MALE, Route: SUBCUTANEOUS, Dose: 38 UMOL/KG IN OLIVE OIL 1/WK FOR 10 WK, Tumor Site: Type of Lesion: INJECTION SITE: MALIGNANT FIBROUS HISTIOCYTOMA) is “active; positive”.
